The results in this text go back to US20240228458A1, “PYRIMIDINE DERIVATIVE HAVING PROTEIN KINASE INHIBITORY ACTIVITY, AND THERAPEUTIC PHARMACEUTICAL COMPOSITION COMPRISING SAME” (THERAPEX CO., LTD., priority 2021, published 2024).

SMILES strings stand for the structures.

Holding throughout (format): cell-based
The subject of assay [1] is Ba/F3 cells expressing EGFR-wt. The assay can be described thus: Growth inhibition (GI50) of Ba/F3 cells expressing EGFR-wt, Celltiter glo. The conditions noted are these: Mus musculus, BaF3, 72 h. Summed up:
(§1)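 Ba/F3 cells carrying each EGFR variant were plated at 100,000 cells/ml; after 4 h, compound was added as 10-point 4-fold dilutions (top stock 2 mM, 0.5% DMSO). After 72 h at 37 °C, viability was read by CellTiter-Glo; GI50 is the molar concentration (μM) giving 50% growth inhibition.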

The subject of assay [2] is Ba/F3 cells expressing del19/T790M/C797S (EGFR-DTC). Put plainly: Growth inhibition (GI50) of Ba/F3 cells expressing del19/T790M/C797S (EGFR-DTC), Celltiter glo. The conditions noted are these: Mus musculus, BaF3, 72 h. The gist of the method: as §1
For assay [3], the system named is Ba/F3 cells expressing L858R/T790M/C797S (EGFR-LTC). Put plainly: Growth inhibition (GI50) of Ba/F3 cells expressing L858R/T790M/C797S (EGFR-LTC), Celltiter glo. Conditions: Mus musculus, BaF3, 72 h. Summed up: as §1
In general terms: Cellular ATP, detected with luciferase, serves as a proxy for viable cell number.

The test system of assay [4] is Ba/F3 cells expressing del19/T790M (EGFR-DT). Put plainly: Growth inhibition (GI50) of Ba/F3 cells expressing del19/T790M (EGFR-DT), Celltiter glo. The conditions noted are these: Mus musculus, BaF3, 72 h. Summed up: as §1
The test system of assay [5] is Ba/F3 cells expressing L858R/T790M (EGFR-LT). The assay can be described thus: Growth inhibition (GI50) of Ba/F3 cells expressing L858R/T790M (EGFR-LT), Celltiter glo. Conditions: Mus musculus, BaF3, 72 h. The gist of the method:
as §1

Assay [6] has as its system parental Ba/F3 cell line. The assay can be described thus: Growth inhibition (GI50) of the parental Ba/F3 cell line (not introduced with EGFR variants), Celltiter glo. The conditions noted are these: Mus musculus, BaF3, 72 h, parental Ba/F3 cells. The gist of the method:
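Parental Ba/F3 cells (100,000 cells/ml) were treated with 10-point, 4-fold compound dilutions (0.5% DMSO; top stock 2 mM) for 72 h at 37 °C, 5% CO2. Viability was read by CellTiter-Glo; GI50 is the concentration (μM) giving 50% growth inhibition.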

As to `COc1ccc(NS(C)(=O)=O)c(Nc2nc(Nc3cc(C)c(N4CCC(N5CCC(N(C)C)C5)CC4)cc3OC)ncc2Cl)c1` (stereo not drawn) [Example 235, N-(2-((5-chloro-2-((4-(4-(3-(dimethylamino)pyrrolidin-1-yl)piperidin-1-yl)-2-methoxy-5-methylphenyl)amino)pyrimidin-4-yl)amino)-4-methoxyphenyl)methanesulfonamide], the GI50 in assay [1] lay within 500 to 2000 nM; in assay [2], 25 to 100 nM; in assay [3], 100 to 500 nM; in assay [4], 25 to 100 nM; in assay [5], 100 to 500 nM; in assay [6], 2000 to 10000 nM.

With `COc1ccc(NS(C)(=O)=O)c(Nc2nc(Nc3cc(C)c(N4CCC(N5CCCC(N(C)C)C5)CC4)cc3Cl)ncc2Cl)c1` (stereo not drawn) [Example 236, N-(2-((5-chloro-2-((2-chloro-4-(3-(dimethylamino)-[1,4′-bipiperidin]-1′-yl)-5-methylphenyl)amino)pyrimidin-4-yl)amino)-4-methoxyphenyl)methanesulfonamide], the GI50 in assay [1] was in the range of 2000 to 10000 nM; in assay [2], 100 to 500 nM; in assay [3], 100 to 500 nM; in assay [4], 100 to 500 nM; in assay [5] it was 100 to 500 nM; in assay [6], 2000 to 10000 nM.

Take `COc1ccc(NS(C)(=O)=O)c(Nc2nc(Nc3cc(Cl)c(N4CCC(N5CCCC(N(C)C)C5)CC4)cc3OC)ncc2Cl)c1` (stereo not drawn) [Example 237, N-(2-((5-chloro-2-((5-chloro-4-(3-(dimethylamino)-[1,4′-bipiperidin]-1′-yl)-2-methoxyphenyl)amino)pyrimidin-4-yl)amino)-4-methoxyphenyl)methanesulfonamide]: the concentration for 50% growth inhibition (GI50) in assay [1] was in the range of 500 to 2000 nM; in assay [2], 100 to 500 nM; in assay [3], 1 to 25 nM; in assay [4], 100 to 500 nM; in assay [5] it was 1 to 25 nM; in assay [6], 2000 to 10000 nM.

As for `COc1nc(N2CCCN(C)CC2)ccc1Nc1ncc(Br)c(Nc2cc3c(cc2NS(C)(=O)=O)CCO3)n1` [Example 238, N-(6-((5-bromo-2-((2-methoxy-6-(4-methyl-1,4-diazepan-1-yl)pyridin-3-yl)amino)pyrimidin-4-yl)amino)-2,3-dihydrobenzofuran-5-yl)methanesulfonamide], the GI50 in assay [1] was in the range of 2000 to 10000 nM; in assay [2] it was 2000 to 10000 nM; in assay [3], 100 to 500 nM; in assay [4], 2000 to 10000 nM; in assay [5] it was 100 to 500 nM; in assay [6], 2000 to 10000 nM.

On to `CN1CCN(C2CCN(c3ncc(Nc4ncc(Br)c(Nc5cc6c(cc5NS(C)(=O)=O)CCO6)n4)cc3F)CC2)CC1` [Example 239, N-(6-((5-bromo-2-((5-fluoro-6-(4-(4-methylpiperazin-1-yl)piperidin-1-yl)pyridin-3-yl)amino)pyrimidin-4-yl)amino)-2,3-dihydrobenzofuran-5-yl)methanesulfonamide], for which the GI50 in assay [1] lay in the range of 500 to 2000 nM; in assay [2], 500 to 2000 nM; in assay [3], 100 to 500 nM; in assay [4], 25 to 100 nM; in assay [5] it was 25 to 100 nM; in assay [6], 2000 to 10000 nM.

As for `COc1nc(N2CCC(N3CCN(C)CC3)CC2)c(C)cc1Nc1ncc(Br)c(Nc2cc3c(cc2NS(C)(=O)=O)CCO3)n1` [Example 240, N-(6-((5-bromo-2-((2-methoxy-5-methyl-6-(4-(4-methylpiperazin-1-yl)piperidin-1-yl)pyridin-3-yl)amino)pyrimidin-4-yl)amino)-2,3-dihydrobenzofuran-5-yl)methanesulfonamide], the GI50 in assay [1] was 500 to 2000 nM; in assay [2], 100 to 500 nM; in assay [3] it was 1 to 25 nM; in assay [4], 100 to 500 nM; in assay [5], 1 to 25 nM; in assay [6] it was 2000 to 10000 nM.

As to `COc1nc(N2CCC(N3CCN(C)CC3)CC2)c(C)cc1Nc1ncc(Cl)c(Nc2cc3c(cc2NS(C)(=O)=O)CCO3)n1` [Example 241, N-(6-((5-chloro-2-((2-methoxy-5-methyl-6-(4-(4-methylpiperazin-1-yl)piperidin-1-yl)pyridin-3-yl)amino)pyrimidin-4-yl)amino)-2,3-dihydrobenzofuran-5-yl)methanesulfonamide], the GI50 in assay [1] is 500 to 2000 nM; in assay [2], 100 to 500 nM; in assay [3] it was 25 to 100 nM; in assay [4] it was 100 to 500 nM; in assay [5], 1 to 25 nM; in assay [6], 2000 to 10000 nM.

`CN1CCN(C2CCN(c3ncc(Nc4ncc(Cl)c(Nc5cc6c(cc5NS(C)(=O)=O)CCO6)n4)cc3F)CC2)CC1` [Example 242, N-(6-((5-chloro-2-((5-fluoro-6-(4-(4-methylpiperazin-1-yl)piperidin-1-yl)pyridin-3-yl)amino)pyrimidin-4-yl)amino)-2,3-dihydrobenzofuran-5-yl)methanesulfonamide]: the 50% growth inhibitory concentration (GI50) in assay [1] was in the range of 2000 to 10000 nM; in assay [2] it was 2000 to 10000 nM; in assay [3], 25 to 100 nM; in assay [4] it was 500 to 2000 nM; in assay [5], 1 to 25 nM; in assay [6], 2000 to 10000 nM.

As to `COc1cc(N2CCC(N3CCN(C)CC3)CC2)ccc1Nc1ncc(Br)c(Nc2cc3c(cc2NS(C)(=O)=O)CCO3)n1` [Example 243, N-(6-((5-bromo-2-((2-methoxy-4-(4-(4-methylpiperazin-1-yl)piperidin-1-yl)phenyl)amino)pyrimidin-4-yl)amino)-2,3-dihydrobenzofuran-5-yl)methanesulfonamide], the GI50 was 500 to 2000 nM in assay [1]; 100 to 500 nM in assay [2]; 1 to 25 nM in assay [3]; 100 to 500 nM in assay [4]; 1 to 25 nM in assay [5]; 2000 to 10000 nM in assay [6].

In the case of `CN1CCN(C2CCN(c3ccc(Nc4ncc(Br)c(Nc5cc6c(cc5NS(C)(=O)=O)CCO6)n4)cc3F)CC2)CC1` [Example 244, N-(6-((5-bromo-2-((3-fluoro-4-(4-(4-methylpiperazin-1-yl)piperidin-1-yl)phenyl)amino)pyrimidin-4-yl)amino)-2,3-dihydrobenzofuran-5-yl)methanesulfonamide], the GI50 in assay [1] lay within 25 to 100 nM; in assay [2] it was 25 to 100 nM; in assay [3], 1 to 25 nM; in assay [4], 1 to 25 nM; in assay [5] it was 1 to 25 nM; in assay [6], 100 to 500 nM.

On to `COc1cc(N2CCC(N3CCC(C(F)(F)F)CC3)CC2)c(C)cc1Nc1ncc(Br)c(Nc2cc3c(cc2NS(C)(=O)=O)CCO3)n1` [Example 245, N-(6-((5-bromo-2-((2-methoxy-5-methyl-4-(4-(trifluoromethyl)-[1,4′-bipiperidin]-1′-yl)phenyl)amino)pyrimidin-4-yl)amino)-2,3-dihydrobenzofuran-5-yl)methanesulfonamide], for which the GI50 in assay [1] is 2000 to 10000 nM; in assay [2], 25 to 100 nM; in assay [3], 1 to 25 nM; in assay [4], 100 to 500 nM; in assay [5], 1 to 25 nM; in assay [6], 2000 to 10000 nM.

For `CN1CCN(C2CCN(c3ccc(Nc4ncc(Br)c(Nc5cc6c(cc5NS(C)(=O)=O)CCO6)n4)c(Cl)c3)CC2)CC1` [Example 246], the concentration for 50% growth inhibition (GI50) in assay [1] lay within 500 to 2000 nM; in assay [2], 100 to 500 nM; in assay [3], 1 to 25 nM; in assay [4] it was 100 to 500 nM; in assay [5] it was 1 to 25 nM; in assay [6] it was 2000 to 10000 nM.

As to `CN1CCN(C2CCN(c3ccc4cc(Nc5ncc(Br)c(Nc6cc7c(cc6NS(C)(=O)=O)CCO7)n5)ccc4n3)CC2)CC1` [Example 247, N-(6-((5-bromo-2-((2-(4-(4-methylpiperazin-1-yl)piperidin-1-yl)quinolin-6-yl)amino)pyrimidin-4-yl)amino)-2,3-dihydrobenzofuran-5-yl)methanesulfonamide], the GI50 in assay [1] was in the range of 500 to 2000 nM; in assay [2], 100 to 500 nM; in assay [3], 100 to 500 nM; in assay [4], 25 to 100 nM; in assay [5] it was 100 to 500 nM; in assay [6], 2000 to 10000 nM.

With `COc1cc(N2CCC(N3CCN(C)CC3)CC2)c(C)cc1Nc1ncc(Cl)c(Nc2cc3c(cc2N(C)S(C)(=O)=O)CCO3)n1` [Example 248, N-(6-((5-chloro-2-((2-methoxy-5-methyl-4-(4-(4-methylpiperazin-1-yl)piperidin-1-yl)phenyl)amino)pyrimidin-4-yl)amino)-2,3-dihydrobenzofuran-5-yl)-N-methylmethanesulfonamide], the 50% growth inhibitory concentration (GI50) in assay [1] fell in the range of 100 to 500 nM; in assay [2], 25 to 100 nM; in assay [3], 1 to 25 nM; in assay [4], 1 to 25 nM; in assay [5], 1 to 25 nM; in assay [6] it was 2000 to 10000 nM.

On to `COc1cc(N2CCC(N3CCN(C)CC3)CC2)c(Cl)cc1Nc1ncc(Cl)c(Nc2cc3c(cc2N(C)S(C)(=O)=O)CCO3)n1` [Example 249, N-(6-((5-chloro-2-((5-chloro-2-methoxy-4-(4-(4-methylpiperazin-1-yl)piperidin-1-yl)phenyl)amino)pyrimidin-4-yl)amino)-2,3-dihydrobenzofuran-5-yl)-N-methylmethanesulfonamide], for which the GI50 in assay [1] fell in the range of 100 to 500 nM; in assay [2], 25 to 100 nM; in assay [3], 1 to 25 nM; in assay [4] it was 1 to 25 nM; in assay [5] it was 1 to 25 nM; in assay [6], 2000 to 10000 nM.

For orientation: GI50 means the concentration giving 50% growth inhibition.
